{"source": "patent US10881644B2", "about": "“Treatment of asthma and chronic obstructive pulmonary disease with anti-proliferate and anti-inflammatory drugs” (Lutonix, Inc., priority 2006, dated 2021)", "key": {"[1]": {"test": "Drug coated PTCA balloon catheter in pig blood vessels: residual drug on balloon and drug content in tissue by tissue extraction and HPLC", "conditions": "after only 0.2-2 minutes of deployment; substance used as additive in the drug coating", "excerpt": "6 PTCA balloon catheters (3.5 and 3.0 mm in diameter and 20 mm in length) were inflated at 1-3 atm. […] The sufficient amount of drug on the balloon (3 microgram per square mm) was obtained. The inflated balloon was folded, and then dried. The coated folded balloon was then rewrapped and sterilized for animal testing.\nThe coated PTCA balloon catheter was inserted into target site in the blood vessels (LAD, LCX and RCA) in the 25-45 ib pig was inflated to 12 atm. […] The drug was delivered into the target tissue in 30-60 seconds. The balloon catheter was then deflated and was withdrawn from the animal body. The target blood vessel was harvested at 0.25-24 hours after inflation. The drug content in the target tissue and the residual drug remained on the balloon were analyzed by tissue extraction and HPLC. In some of the animal tests the stent was crimped on the drug coated balloon catheters prior to deployment.\nAll data is the average of five or six experimental data points."}, "[2]": {"conditions": "with the addition of BSA; cited from earlier work"}, "[3]": {"test": "Stability under ethylene oxide sterilization, heating and aging with paclitaxel", "type": "physicochemical", "conditions": "formulated with paclitaxel"}, "albumin": {"test_system": "albumin", "conditions": "cited from earlier work"}, "[4]": {"conditions": "1 minute after intravenous injection in rats; cited from earlier work"}}, "data": [{"compound": "O=C1O[C@H](CO)[C@@H](O)[C@H](O)[C@H]1O", "note": "[gluconolactone]", "values": [{"measurement": "drug absorption by tissue / drug levels in tissue", "setting": "[1]", "result": "unexpectedly high"}]}, {"compound": "CC(=O)O[C@H]1C(=O)[C@@]2(C)[C@H]([C@H](OC(=O)c3ccccc3)[C@]3(O)C[C@H](OC(=O)[C@H](O)[C@@H](NC(=O)c4ccccc4)c4ccccc4)C(C)=C1C3(C)C)[C@]1(OC(C)=O)CO[C@@H]1C[C@@H]2O", "note": "[paclitaxel]", "values": [{"measurement": "increase of solubility in PBS", "setting": "[2]", "result": "over 20 fold"}]}, {"compound": "O=C(O)c1ccccc1", "note": "[benzoic acid]", "values": [{"measurement": "stability under ethylene oxide sterilization, heating, and aging process", "setting": "[3]", "result": "not stable"}]}, {"compound": "O=C1O[C@H]([C@@H](O)CO)C(O)=C1O", "note": "[ascorbic acid]", "values": [{"measurement": "stability under ethylene oxide sterilization, heating, and aging process", "setting": "[3]", "result": "not stable"}]}, {"compound": "OCCNCCO", "note": "[diethanolamine]", "values": [{"measurement": "stability under ethylene oxide sterilization, heating, and aging process", "setting": "[3]", "result": "not stable"}]}, {"compound": "O=C(O)c1cc(O)ccc1O", "note": "[gentisic acid]", "values": [{"measurement": "stability under ethylene oxide sterilization, heating, and aging process", "setting": "[3]", "result": "not stable"}]}, {"compound": "CO[C@H]1C[C@@H]2CC[C@@H](C)[C@@](O)(O2)C(=O)C(=O)N2CCCC[C@H]2C(=O)O[C@H]([C@H](C)C[C@@H]2CC[C@@H](O)[C@H](OC)C2)CC(=O)[C@H](C)/C=C(\\C)[C@@H](O)[C@@H](OC)C(=O)[C@H](C)C[C@H](C)/C=C/C=C/C=C/1C", "note": "[rapamycin]", "values": [{"measurement": "protein bound", "setting": "albumin", "result": 92, "unit": "%"}]}, {"compound": "I-iothalamate", "values": [{"measurement": "share of myocardial content found in the extravascular space", "setting": "[4]", "result": "approximately 80%"}]}, {"compound": "O=C1O[C@H](CO)[C@@H](O)[C@H]1O", "note": "[ribonic acid lactone]", "values": [{"measurement": "drug absorption by tissue / drug levels in tissue", "setting": "[1]", "result": "unexpectedly high"}]}]}
